Reference: ChEMBL document CHEMBL4842383 (J Med Chem, 2021)
The source made the active and inactive calls. The rule behind the calls is not given here.

How the values were obtained:
[1] = target: T1, Macrophage colony-stimulating factor 1 receptor (Homo sapiens, UniProt P07333); experiment: Inhibition of human recombinant GST-CSF1R (residues L534 to C972) expressed in Sf9 insect cells using poly(Glu,Tyr) as substrate incubated for 20 mins by ATP Kinase Glo assay
[2] = target: T2, Aurora kinase A (Homo sapiens) (UniProt O14965); experiment: Inhibition of recombinant GST-AURKA (residues Ser123 to Ser401) (unknown origin) expressed in Sf9 insect cells using tetra(-LRRASLG) peptide as substrate at 1 uM incubated for 90 mins by ATP Kinase Glo assay
T2 sequence (whole entry): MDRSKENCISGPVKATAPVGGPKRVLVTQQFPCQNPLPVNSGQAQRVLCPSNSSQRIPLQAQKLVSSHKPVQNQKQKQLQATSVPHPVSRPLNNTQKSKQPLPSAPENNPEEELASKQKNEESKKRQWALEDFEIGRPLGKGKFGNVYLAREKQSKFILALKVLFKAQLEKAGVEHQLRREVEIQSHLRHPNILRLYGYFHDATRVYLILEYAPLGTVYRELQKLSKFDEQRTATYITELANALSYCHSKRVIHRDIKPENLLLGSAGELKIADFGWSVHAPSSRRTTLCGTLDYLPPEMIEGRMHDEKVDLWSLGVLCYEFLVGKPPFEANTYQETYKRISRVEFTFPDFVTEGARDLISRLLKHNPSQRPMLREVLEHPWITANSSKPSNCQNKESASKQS

[3] = target: T3, Aurora kinase B (Homo sapiens, UniProt Q96GD4); experiment: Inhibition of human recombinant full length GST-AURKB using tetra(-LRRASLG) peptide as substrate at 0.1 uM incubated for 20 mins by ATP Kinase Glo assay; type: biochemical; details: Sf9
T3 sequence (Q96GD4 whole entry): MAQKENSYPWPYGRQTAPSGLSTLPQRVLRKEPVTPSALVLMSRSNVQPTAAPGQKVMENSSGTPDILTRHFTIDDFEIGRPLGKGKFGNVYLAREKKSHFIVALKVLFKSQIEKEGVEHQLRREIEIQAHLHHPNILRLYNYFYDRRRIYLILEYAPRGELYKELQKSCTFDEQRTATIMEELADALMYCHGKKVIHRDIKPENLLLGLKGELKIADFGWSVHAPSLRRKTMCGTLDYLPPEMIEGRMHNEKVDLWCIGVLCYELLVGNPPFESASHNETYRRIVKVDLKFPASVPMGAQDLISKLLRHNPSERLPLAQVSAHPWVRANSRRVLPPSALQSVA

[4] = system: BaF3; experiment: Antiproliferative activity against mouse BaF3 cells transfected with human ETV6-CSF1R assessed as reduction in cell viability measured after 72 hrs by MTS method; details: BaF3, 72 h
[5] = system: NFS-60; experiment: Antiproliferative activity against mouse NFS-60 cells transfected with human ETV6-CSF1R assessed as reduction in cell viability measured after 72 hrs by MTS method; type: functional, cell-based; details: NFS-60, 72 h
[6] = Half life in Sprague-Dawley rat at 5 mg/kg, iv measured up to 24 hrs by LC-MS/MS analysis; type: ADME, organism-based; details: in vivo
[7] = Clearance in Sprague-Dawley rat at 5 mg/kg, iv measured up to 24 hrs by LC-MS/MS analysis; type: ADME, organism-based; details: in vivo
[8] = Volume of distribution at steady state in Sprague-Dawley rat at 5 mg/kg, iv measured up to 24 hrs by LC-MS/MS analysis; type: ADME, organism-based; details: in vivo, read-out: Vdss
[9] = Dose normalized AUC (0 to inf) in Sprague-Dawley rat at 5 mg/kg, iv measured up to 24 hrs by LC-MS/MS analysis; type: ADME, organism-based; details: in vivo
[10] = Half life in Sprague-Dawley rat at 20 to 25 mg/kg, po measured up to 24 hrs by LC-MS/MS analysis; type: ADME, organism-based; details: in vivo, dose 20-25 mg/kg
[11] = Dose normalized Cmax in Sprague-Dawley rat at 20 to 25 mg/kg, po measured up to 24 hrs by LC-MS/MS analysis; type: ADME, organism-based; details: in vivo, dose 20-25 mg/kg
[12] = Tmax in Sprague-Dawley rat at 20 to 25 mg/kg, po measured up to 24 hrs by LC-MS/MS analysis; type: ADME, organism-based; details: in vivo, dose 20-25 mg/kg
[13] = Dose normalized AUC (0 to inf) in Sprague-Dawley rat at 20 to 25 mg/kg, po measured up to 24 hrs by LC-MS/MS analysis; type: ADME, organism-based; details: in vivo, dose 20-25 mg/kg
[14] = Oral bioavailability in Sprague-Dawley rat at 20 to 25 mg/kg measured up to 24 hrs by LC-MS/MS analysis; type: ADME, organism-based; details: in vivo, dose 20-25 mg/kg
[15] = target: T4, Aurora kinase A (Homo sapiens, UniProt O14965); experiment: Inhibition of recombinant GST-AURKA (residues Ser123 to Ser401) (unknown origin) expressed in Sf9 insect cells using tetra(-LRRASLG) peptide as substrate incubated for 90 mins by ATP Kinase Glo assay
T4 sequence (O14965 whole entry): T2 sequence (whole entry)

[16] = target: T3, Aurora kinase B; experiment: Inhibition of human recombinant full length GST-AURKB using tetra(-LRRASLG) peptide as substrate incubated for 20 mins by ATP Kinase Glo assay; parameters: species or system Sf9
[17] = system: BMDM; experiment: Growth inhibition of CSF1-induced mouse BMDM cell assessed as inhibition of M2 like macrophage growth incubated for 3 days by WST-8 assay; details: 72 h
[18] = system: BMDM; experiment: Growth inhibition of CSF2-induced mouse BMDM cell assessed as inhibition of M1 like macrophage growth for 3 days by WST-8 assay; details: 72 h
[19] = system: Mus musculus; experiment: Immunomodulatory activity in mouse MC38 cells inoculated C57BL/6 mouse syngeneic model assessed as increase in M1 to M2 like TAM ratio in tumor at 100 mg/kg, po twice a day for 2 weeks by five days on/two days off schedule relative to control; type: functional, organism-based; details: MC-38
[20] = target: T5, Macrophage colony-stimulating factor 1 receptor (Mus musculus) (UniProt P09581); experiment: Inhibition of CSF1R phosphorylation in mouse RAW264.7 cells by Western blotting analysis; type: cell-based
T5 sequence (whole entry): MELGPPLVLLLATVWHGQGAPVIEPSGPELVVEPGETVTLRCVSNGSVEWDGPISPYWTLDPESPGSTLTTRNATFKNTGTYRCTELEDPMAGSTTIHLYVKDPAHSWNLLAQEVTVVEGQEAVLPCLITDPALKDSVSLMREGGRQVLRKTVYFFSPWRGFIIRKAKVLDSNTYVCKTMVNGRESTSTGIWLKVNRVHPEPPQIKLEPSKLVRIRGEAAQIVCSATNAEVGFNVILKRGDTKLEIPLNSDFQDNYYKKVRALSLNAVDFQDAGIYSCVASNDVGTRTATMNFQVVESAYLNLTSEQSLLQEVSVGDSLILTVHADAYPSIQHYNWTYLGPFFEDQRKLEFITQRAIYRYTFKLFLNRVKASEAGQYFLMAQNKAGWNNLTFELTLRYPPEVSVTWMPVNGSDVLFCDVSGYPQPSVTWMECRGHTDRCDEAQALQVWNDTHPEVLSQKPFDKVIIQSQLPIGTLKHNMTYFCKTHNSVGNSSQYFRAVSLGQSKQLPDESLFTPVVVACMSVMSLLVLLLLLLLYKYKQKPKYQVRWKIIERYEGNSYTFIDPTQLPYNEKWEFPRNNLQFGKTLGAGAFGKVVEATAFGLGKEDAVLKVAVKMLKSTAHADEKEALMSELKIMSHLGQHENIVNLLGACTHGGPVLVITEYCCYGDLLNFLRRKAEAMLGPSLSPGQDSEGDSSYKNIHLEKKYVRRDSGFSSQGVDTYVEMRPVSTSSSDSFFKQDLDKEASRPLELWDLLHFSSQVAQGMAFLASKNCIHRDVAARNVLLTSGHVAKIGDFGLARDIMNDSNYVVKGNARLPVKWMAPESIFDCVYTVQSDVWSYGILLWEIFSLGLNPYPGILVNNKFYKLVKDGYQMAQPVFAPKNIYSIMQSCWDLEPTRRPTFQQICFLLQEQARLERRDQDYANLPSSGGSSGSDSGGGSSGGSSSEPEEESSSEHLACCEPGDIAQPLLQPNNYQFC

[21] = target: T1, Macrophage colony-stimulating factor 1 receptor; experiment: Inhibition of CSF1R phosphorylation in human THP-1 cells by Western blotting analysis; type: cell-based
[22] = system: RAW264.7; experiment: Anti-inflammatory activity mouse RAW264.7 cells assessed as inhibition of LPS-induced TNFalpha production by ELISA; type: functional, cell-based
[23] = system: Mus musculus; experiment: Immunomodulatory activity in mouse MC38 cells inoculated C57BL/6 mouse syngeneic model assessed as increase in cytotoxic CD8+ T cell to M2 like TAM ratio in tumor at 100 mg/kg, po twice a day for 2 weeks by five days on/two days off schedule relative to control; type: functional, organism-based; details: MC-38

T1 sequence (P07333 whole entry, the tested form may be a part): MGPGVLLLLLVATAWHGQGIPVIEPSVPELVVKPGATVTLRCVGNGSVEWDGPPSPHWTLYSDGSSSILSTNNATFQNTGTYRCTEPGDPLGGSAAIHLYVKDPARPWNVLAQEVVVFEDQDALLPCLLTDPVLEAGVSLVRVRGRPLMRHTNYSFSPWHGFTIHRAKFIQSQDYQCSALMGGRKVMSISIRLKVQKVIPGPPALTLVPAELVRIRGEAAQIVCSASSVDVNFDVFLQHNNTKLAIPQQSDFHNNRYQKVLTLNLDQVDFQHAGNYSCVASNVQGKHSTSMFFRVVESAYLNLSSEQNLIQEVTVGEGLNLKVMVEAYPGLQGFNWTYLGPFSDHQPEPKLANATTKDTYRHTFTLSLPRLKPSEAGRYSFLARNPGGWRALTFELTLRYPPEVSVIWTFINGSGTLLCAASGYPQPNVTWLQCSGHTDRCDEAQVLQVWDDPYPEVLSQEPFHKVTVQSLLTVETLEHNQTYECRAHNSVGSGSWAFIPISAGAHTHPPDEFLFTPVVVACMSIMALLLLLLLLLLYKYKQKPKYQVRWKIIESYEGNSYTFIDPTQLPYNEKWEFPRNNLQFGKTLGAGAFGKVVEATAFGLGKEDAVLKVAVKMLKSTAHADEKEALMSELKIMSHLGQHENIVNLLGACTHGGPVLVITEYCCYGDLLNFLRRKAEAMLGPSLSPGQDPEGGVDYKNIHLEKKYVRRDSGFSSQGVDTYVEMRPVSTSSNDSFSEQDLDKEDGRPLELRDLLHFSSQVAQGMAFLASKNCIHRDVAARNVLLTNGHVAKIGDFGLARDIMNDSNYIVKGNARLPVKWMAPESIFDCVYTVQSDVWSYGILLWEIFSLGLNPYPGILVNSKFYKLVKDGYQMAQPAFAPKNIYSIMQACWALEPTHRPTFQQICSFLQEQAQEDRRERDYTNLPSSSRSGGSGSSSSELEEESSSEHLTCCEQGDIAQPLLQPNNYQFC

COc1ccc(CNC(=O)Nc2ccc(Oc3ncnc4cc(N(C)C)ccc34)cc2)cn1
IC50 [1]: 12.7 nM
inhibition [2]: 2%
inhibition [3]: 18%
EC50 [4]: 87 nM
EC50 [5]: 67 nM
half-life [6]: 1.2 h
clearance [7]: 24.7 mL/min/kg
Vd [8]: 1.4 L/kg
AUCt/dose [9]: 767 ng.hr/mL per mg/kg
half-life [10]: 4.8 h
Cmax/dose [11]: 35 ng/mL
Tmax [12]: 2.3 h
AUCt/dose [13]: 236 ng.hr/mL per mg/kg
bioavailability [14]: 30.7%

COc1ccc(CNC(=O)Nc2ccc(Oc3ncnc4cc(N(C)C)ccc34)cc2)cc1
IC50 [1]: 12.9 nM
inhibition [2]: 6%
inhibition [3]: 29%
EC50 [4]: 91 nM
EC50 [5]: 81 nM
half-life [6]: 20.6 h
clearance [7]: 16.5 mL/min/kg
Vd [8]: 9 L/kg
AUCt/dose [9]: 1252 ng.hr/mL per mg/kg
half-life [10]: 6.7 h
Cmax/dose [11]: 1.7 ng/mL
Tmax [12]: 6 h
AUCt/dose [13]: 15 ng.hr/mL per mg/kg
bioavailability [14]: 1.6%

CN(C)c1ccc2c(Oc3ccc(NC(=O)NCc4ccc(F)cc4)cc3)ncnc2c1
IC50 [1]: 8.3 nM
inhibition [2]: 5%
inhibition [3]: 27%
IC50 [15]: > 10000 nM
EC50 [4]: 46 nM
EC50 [5]: 69 nM
half-life [6]: 3.3 h
clearance [7]: 12.2 mL/min/kg
Vd [8]: 1.4 L/kg
AUCt/dose [9]: 1225 ng.hr/mL per mg/kg
half-life [10]: 24.2 h
Cmax/dose [11]: 56 ng/mL
Tmax [12]: 0.5 h
AUCt/dose [13]: 89 ng.hr/mL per mg/kg
bioavailability [14]: 7.3%

Cc1ccc(CNC(=O)Nc2ccc(Oc3ncnc4cc(N(C)C)ccc34)cc2)cn1
IC50 [1]: 11 nM
inhibition [2]: 4%
inhibition [3]: 9%
EC50 [4]: 38 nM
EC50 [5]: 68 nM
half-life [6]: 10.5 h
clearance [7]: 5.6 mL/min/kg
Vd [8]: 1.5 L/kg
AUCt/dose [9]: 1578 ng.hr/mL per mg/kg
half-life [10]: 2.4 h
Cmax/dose [11]: 21 ng/mL
Tmax [12]: 3.2 h
AUCt/dose [13]: 164 ng.hr/mL per mg/kg
bioavailability [14]: 10.4%

FC(F)(F)c1ccc(CNc2ccc(Cc3c[nH]c4ncc(Cl)cc34)cn2)cn1 [PEXIDARTINIB]
inhibition [2]: 63%
IC50 [16]: 643 nM
EC50 [4]: 200 nM
EC50 [5]: 294 nM
IC50 [17]: 56 nM
IC50 [18]: > 10000 nM

COc1ccc(NC(=O)Nc2ccc(Oc3ncnc4cc(N(C)C)ccc34)cc2)cc1
IC50 [1]: 14.1 nM
inhibition [2]: 23%
inhibition [3]: 34%
IC50 [15]: > 10000 nM
IC50 [16]: 22.2 nM
EC50 [4]: 23 nM
EC50 [5]: 23 nM
half-life [6]: 1.6 h
clearance [7]: 5.6 mL/min/kg
Vd [8]: 0.7 L/kg
AUCt/dose [9]: 2842 ng.hr/mL per mg/kg
half-life [10]: 4 h
Cmax/dose [11]: 10.6 ng/mL
Tmax [12]: 2.7 h
AUCt/dose [13]: 91 ng.hr/mL per mg/kg
bioavailability [14]: 3.2%

CN(C)c1ccc2c(Oc3ccc(NC(=O)NCc4ccc(C(F)(F)F)nc4)cc3)ncnc2c1
Activity [19]: Active
inhibition [2]: 7%
inhibition [3]: 16%
inhibition [20]: Dose-Dependent Effect
inhibition [21]: Dose-Dependent Effect
inhibition [22]: Active
Activity [23]: Active
